Assay results taken from the NIST ThermoML archive (doi:10.1007/s10765-011-0996-9).
Numbers after ± are expanded uncertainties.

Experiment: cn = amount concentration of the nth substance listed, in mol/dm3
Conditions: 101 kPa, Liquid, Capillary tube (Ostwald / Ubbelohde) method, c1 = 2

SMILES | viscosity (298.15 K) [mPa·s] | viscosity (303.15 K) [mPa·s] | viscosity (308.15 K) [mPa·s] | viscosity (313.15 K) [mPa·s] | viscosity (318.15 K) [mPa·s] | viscosity (323.15 K) [mPa·s]
[Cl-].[K+] [potassium chloride] + O | 0.9063 ± 0.0073 | 0.8279 ± 0.0067 | 0.7573 ± 0.0062 | 0.6954 ± 0.0058 | 0.64 ± 0.0054 | 0.5914 ± 0.0051
O=[N+]([O-])[O-].[K+] [potassium nitrate] + O | 0.8985 ± 0.0072 | 0.8134 ± 0.0066 | 0.7473 ± 0.0061 | 0.6857 ± 0.0057 | 0.6322 ± 0.0054 | 0.5838 ± 0.005
